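Following 48 hours of exposure in 96-well plates, responses at five concentrations were used to interpolate endpoints linearly. TGI marks complete inhibition of growth.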
Key:
Assay in all cases: growth of human tumour cells (NCI), 48 h
[1] = tested on: TK-10 renal
[2] = tested on: T-47D breast
[3] = tested on: NCI-H460 lung
[4] = tested on: NCI-H226 lung
[5] = tested on: HCC-2998 colon
[6] = tested on: OVCAR-8 ovarian
[7] = tested on: MCF7 breast
[8] = tested on: SW-620 colon
[9] = tested on: IGROV1 ovarian
[10] = tested on: NCI-H522 lung
[11] = tested on: 786-0 renal
[12] = tested on: ACHN renal

SMILES	TGI [1]	TGI [2]	TGI [3]	TGI [4]	TGI [5]	TGI [6]	TGI [7]	TGI [8]	TGI [9]	TGI [10]	TGI [11]	TGI [12]
Cc1ccc(C2=Nc3c(c(C)nn3-c3ccccc3)N=C(C(=O)O)C2)cc1	> 10 µM	> 10 µM	> 10 µM	> 10 µM	> 10 µM	> 10 µM	> 10 µM	> 10 µM	> 10 µM	> 10 µM	> 10 µM	> 10 µM
CC1CC(C#N)=C2NCCCCN2C1=O (stereo not drawn)	> 100 µM	> 100 µM	> 100 µM	> 100 µM	> 100 µM	> 100 µM	> 100 µM	> 100 µM	> 100 µM	> 100 µM	> 100 µM	
Cc1ccc(C(=O)Nc2ccc(CP(=O)(O)O)cc2)cc1NC(=O)c1cccc(NC(=O)Nc2cccc(C(=O)Nc3cc(C(=O)Nc4ccc(CP(=O)(O)O)cc4)ccc3C)c2)c1	> 100 µM	> 100 µM	> 100 µM	> 100 µM	> 100 µM	> 100 µM	> 100 µM	> 100 µM	> 100 µM	> 100 µM	> 100 µM	> 100 µM
CN(O)C(=O)Cc1ccc(OCc2cccc(Cl)c2)cc1	> 100 µM	> 100 µM	> 100 µM	> 100 µM	> 100 µM	> 100 µM	> 100 µM	> 100 µM	> 100 µM	> 100 µM	> 100 µM	> 100 µM
CC(C)c1c(P(=O)(c2ccccc2)c2ccccc2)n(C)c2ccccc12	> 100 µM	> 100 µM	> 100 µM	> 100 µM	> 100 µM	> 100 µM	> 100 µM	> 100 µM		> 100 µM	> 100 µM	> 100 µM
CC(C)/C(Cl)=N\OC(=O)NNc1ccccc1	> 100 µM	40.1 µM	> 100 µM	99.7 µM	> 100 µM	> 100 µM	> 100 µM	> 44.1 µM	> 100 µM	28.7 µM	> 100 µM	34.1 µM
O=C1/C(=C/c2ccc(F)cc2)CNC/C1=C\c1ccc(F)cc1	6.71 µM	20.3 µM	2.36 µM	15.3 µM	1.74 µM	9.52 µM	8.83 µM	0.754 µM	2.52 µM	3.26 µM	1.45 µM	3.18 µM
O=C1OC[C@@H]2Cc3c([nH]c4ccccc34)[C@@H](c3ccc(O)cc3)N12	> 100 µM	> 100 µM	81.4 µM	80.1 µM	> 96.7 µM	> 71.7 µM	> 100 µM	> 100 µM	61.1 µM	77.6 µM	> 100 µM	> 74.2 µM
Cc1oc2nc(N(C)C)n3nnnc3c2c1C	> 100 µM	> 100 µM		> 100 µM	> 100 µM	> 100 µM	> 100 µM	> 100 µM	> 100 µM	> 100 µM	> 100 µM	> 100 µM
CCN(CC)CCCn1c(=O)c2cccnc2n2c3c(=O)n(C)c(=O)n(C)c3nc12	> 100 µM	> 100 µM	> 100 µM	> 100 µM	> 100 µM	> 100 µM	> 100 µM	> 100 µM	> 100 µM	> 100 µM	> 100 µM	> 100 µM
CC1=C2c3ccccc3N(C(=O)/C=C/C(=O)O)[C@H]2[C@H]2C(=O)OC(=O)[C@H]2C1	> 10 µM	> 10 µM	> 10 µM	> 10 µM	> 10 µM	> 10 µM	> 10 µM	> 10 µM	> 10 µM	> 10 µM		> 10 µM
Cc1nc(Cl)c(CBr)c(Cl)n1	3.68 µM	4.5 µM	8.38 µM	6.73 µM	11.5 µM	6.47 µM	2.17 µM		3.39 µM	1.15 µM	1 µM	3.15 µM
CC1=CC(=O)N(n2c(C)n[nH]c2=O)C1=O	> 100 µM	> 100 µM	> 100 µM	> 100 µM	> 100 µM	> 100 µM	> 100 µM	> 100 µM	> 100 µM	> 100 µM	> 100 µM	> 100 µM
O=C1/C(=C/c2ccc(Br)s2)NC(=S)N1CN1CCOCC1	> 100 µM	> 100 µM	> 100 µM	> 100 µM	> 100 µM	> 100 µM	52.8 µM	> 100 µM	> 100 µM	> 100 µM	> 100 µM	> 100 µM
c1ccc2c(c1)CCCN1CCc3ccccc3C21 (stereo not drawn)	> 100 µM	> 100 µM	> 100 µM	> 100 µM	> 100 µM	> 100 µM	> 100 µM	> 100 µM	> 100 µM	> 100 µM	> 100 µM	> 100 µM
CN1CCN(C(=S)N(C)C(=O)c2ccc(Cl)cc2)CC1	> 100 µM	> 100 µM	> 100 µM	> 100 µM	> 100 µM	> 100 µM	> 100 µM	> 100 µM	> 100 µM	> 100 µM	> 100 µM	> 100 µM
CC1=CC=CC(C)(C)CC1(O[Si](C)(C)C)C(F)(F)F (stereo not drawn)	> 100 µM	> 100 µM	> 100 µM	> 100 µM	> 100 µM	> 100 µM	> 100 µM	> 100 µM	> 100 µM	> 100 µM	> 100 µM	> 100 µM
COc1ccc2c(c1)C(=O)c1ccccc1C2	> 100 µM	67.8 µM	> 100 µM	> 100 µM	> 100 µM	> 100 µM	> 100 µM	> 100 µM	> 100 µM	> 100 µM	> 100 µM	> 100 µM
CN1C(=O)CN(NC(=O)C2=C(O)c3ccc(Br)cc3S(=O)(=O)N2)C1=S	> 100 µM	> 100 µM	> 100 µM	> 100 µM	> 100 µM	> 100 µM	> 100 µM	> 100 µM	> 100 µM	> 100 µM	> 100 µM	> 100 µM

SMILES	TGI [1]	TGI [2]	TGI [3]	TGI [4]	TGI [5]	TGI [6]	TGI [7]	TGI [8]	TGI [9]	TGI [10]	TGI [11]	TGI [12]
CCn1c(=O)c2c3cc(O)ccc3oc2c2ccc(O)cc21	> 100 µM	36.5 µM	> 100 µM	> 100 µM	50.9 µM	> 100 µM	> 100 µM	> 100 µM	> 100 µM	63.9 µM	> 100 µM	66.1 µM
N#Cc1c2c(c(Nc3ccc(F)cc3)n3c1nc1ccccc13)CCC2	6.51 µM	24 µM	23 µM	22.7 µM	41.9 µM	5.83 µM	16 µM	5.71 µM	11.1 µM	4.58 µM	3.25 µM	5.8 µM
CCOC(=O)c1c(N)n(-c2ccccc2)c(=S)n(-c2ccccc2)c1=O	> 100 µM	> 100 µM	> 100 µM	> 100 µM	> 100 µM	> 100 µM	> 100 µM	> 100 µM	> 100 µM	> 100 µM	> 100 µM	> 100 µM
COc1cc2c(cc1OC)C(=O)/C(=C/c1cc(C)c(O)c(C)c1)C2	> 100 µM	> 100 µM	> 100 µM	> 59.7 µM	> 100 µM		> 100 µM	> 100 µM	> 100 µM	> 95.9 µM		> 100 µM
C=CC/C(C(=O)OC)=C(/C(=O)OC)N(CCC)CCC	> 100 µM	> 100 µM	> 100 µM	> 100 µM	> 100 µM	> 100 µM	> 100 µM	> 100 µM	> 100 µM	> 100 µM	> 100 µM	> 100 µM
CN1CN(c2ccccc2)C2(CCN(CCCC3(c4cccs4)OCCO3)CC2)C1=O	> 100 µM	> 100 µM	> 100 µM	> 100 µM	> 100 µM	> 100 µM	> 100 µM	> 100 µM	> 100 µM	> 100 µM	> 100 µM	> 100 µM
CCC[C@H](C)[C@H]1NC(=O)[C@@H](NC(=O)[C@@H](CC(C)C)N(C)C(=O)C2CCCN2C(=O)[C@H](C)O)[C@@H](C)OC(=O)[C@H](CC(C)C)N(C)C(=O)[C@@H]2CCCN2C(=O)[C@H](CC(C)C)NC(=O)[C@@H](C)C(=O)[C@H](C(C)C)OC(=O)C[C@@H]1O (stereo partly drawn)	0.0946 µM	0.25 µM	0.0289 µM	0.0622 µM	0.00551 µM	0.0484 µM	0.25 µM	0.00524 µM	0.0256 µM	0.00609 µM	0.0157 µM	0.0689 µM
CC(C)(CO)N1C(=O)c2ccccc2C1(O)c1ccc(Cl)cc1 (stereo not drawn)	> 100 µM	> 100 µM	> 100 µM	> 100 µM	> 100 µM	> 100 µM	> 100 µM	> 100 µM	> 100 µM	> 100 µM	> 100 µM	> 100 µM
Cc1cc(C)c2c(n1)S(=O)(=O)N(CCCN1CCN(c3cccc(C(F)(F)F)c3)CC1)/C(=C(\O)c1ccc(Cl)cc1)C2=O	11.9 µM	38.9 µM	11 µM	8.61 µM		29.5 µM	14 µM	39 µM	16.2 µM	14.8 µM	15.4 µM	13.8 µM
O=c1nc2c(c(-c3cccc(Cl)c3)[nH]1)COC/C2=C\c1cccc(Cl)c1	> 100 µM	> 100 µM	> 100 µM	> 100 µM	> 100 µM	> 100 µM	> 100 µM	> 100 µM	> 100 µM	> 100 µM	> 100 µM	> 100 µM
O=C1/C(=C/c2ccc([N+](=O)[O-])cc2)CNC/C1=C\c1ccc([N+](=O)[O-])cc1	> 95.8 µM	> 81.3 µM	12.7 µM	> 57.5 µM	23.4 µM	8.36 µM	> 100 µM	1.78 µM	4.78 µM	9.4 µM	3.18 µM	25.3 µM
CCOc1ccc(N=C/C=C(\Cl)c2ccc3ccccc3c2)cc1	35.7 µM	22.3 µM	44.8 µM	53.7 µM		32.8 µM	55.1 µM	36.5 µM	41.5 µM	52.1 µM	26.7 µM	32.7 µM
O=C(O[C@H](/C=C/c1ccccc1)P1(=O)N(Cc2ccccc2)[C@@H]2CCCC[C@H]2N1Cc1ccccc1)c1ccccc1	> 100 µM	3.66 µM	> 100 µM	7.98 µM	> 100 µM	> 100 µM	> 100 µM	> 100 µM	15.8 µM	> 100 µM	42 µM	> 100 µM
CCOC(=O)C1C(=O)CC(O)(c2ccccc2)C(C(=O)OCC)C1c1ccc(OC)cc1 (stereo not drawn)	> 100 µM	> 100 µM	> 100 µM	> 100 µM	> 100 µM	> 100 µM	> 100 µM	> 74.3 µM	> 100 µM	38.2 µM	> 59.2 µM	> 100 µM
C/C(=N/NC(=S)Nc1cccc(C)c1)c1ccccn1	4.98 µM	12.4 µM	5.59 µM	1.28 µM	4.18 µM	2.33 µM	0.224 µM	5.45 µM	4.68 µM	7.23 µM	4.26 µM	6.83 µM
O=C1C(Br)=Cc2c(Cl)sc(Cl)c21	5.23 µM	7.58 µM	53.3 µM	> 100 µM	7.71 µM	33.3 µM	11.5 µM	12.9 µM	7.67 µM	11.7 µM	5.09 µM	9.83 µM
O=C(O)CNC(=O)c1ccc([As](=O)(O)O)cc1	> 100 µM	> 100 µM	> 100 µM	> 100 µM		> 100 µM	> 100 µM	> 100 µM	> 100 µM	> 100 µM	> 100 µM	> 100 µM
N#Cc1c(OCCF)c2ccccc2n2c1nc1ccccc12	> 100 µM	> 100 µM	> 100 µM	> 100 µM	> 100 µM	> 100 µM	> 100 µM	> 100 µM	> 100 µM	> 100 µM		> 100 µM
